# Experimental data as given in patent US20080242649A1, “New Combination 665” (priority 2007, published 2008).
# Counter-ions that a name gives are not always drawn.
# Legend:
# [1] = target: T1, recombinant human Dopamine Subtype D2s receptors (Homo sapiens, UniProt P14416); assay: Dopamine D2 [3H]-spiperone binding; conditions: inhibition of [3H]-spiperone binding; read-out: D2 bind pIC50 (converted)
# T1 construct: purchased Perkin Elmer
# Method: Membranes containing recombinant human Dopamine Subtype D2s receptors were obtained from Perkin Elmer. These were diluted in Assay Buffer (50 mM HEPES, 1 mM EDTA, 120 mM NaCl, 0.1% gelatin, pH 7.4) to provide a final concentration of membranes that gave a clear window between maximum and minimum specific binding.
# Assays were performed in U-bottomed 96-well polypropylene plates. 30 PL [^3H]-spiperone (0.16 nM final concentration) and 30 μL of Compound A (10× final concentration) were added to each test well. For each assay plate 8 replicates were obtained for [^3H]-spiperone binding in the presence of 30 PL vehicle (10% (v/v) DMSO in Assay Buffer; defining maximum binding) or 30 μL Haloperidol (10 PM final concentration; defining non-specific binding (NSB)). Membranes were then added to achieve a final volume of 300 μL. […] Five washes with 250 μL wash buffer (50 mM HEPES, 1 mM EDTA, 120 mM NaCl, pH 7.4) were performed at 4° C. to remove unbound radioactivity. […] The plates were sealed (TopSeal A) and filter-bound radioactivity was measured with a scintillation counter (TopCount, Packard BioScience) using a 3-minute counting protocol.
# Total specific binding (B0) was determined by subtracting the mean NSB from the mean maximum binding. […]
# [2] = system: histamine-induced bronchoconstriction; assay: Lung function in anaesthetized guinea-pigs, histamine challenge; assay type: in vivo, Dunkin-Hartley guinea pig; conditions: for inhibition of histamine-induced bronchoconstriction: histamine 5 μg/kg i.v.; for increase in bronchoconstriction: histamine 5 μg/kg, vehicle 1100±161%
# Method: (§1) Evaluation of Lung Function in Anaesthetized Guinea-Pigs
# (§2) Male Dunkin-Hartley guinea pigs (300-600 g) were weighed and dosed with vehicle (0.05M phosphate, 0.1% Tween 80, 0.6% saline, pH 6) or compound via the intratracheal route under recoverable gaseous anaesthesia (5% halothane in oxygen). Animals were dosed with compound or vehicle two hours prior to the administration of histamine or methacholine.
# (§3) Guinea pigs were anaesthetized with pentobarbitone (1 mL/kg of 60 mg/mL solution i.p.) approximately 30 minutes prior to the first bronchoconstrictor administration. The trachea was cannulated and the animal ventilated using a constant volume respiratory pump (Harvard Rodent Ventilator model 683) at a rate of 60 breath/min and a tidal volume of 5 ml/kg. A jugular vein was cannulated for the administration of histamine, methacholine or maintenance anaesthetic (0.1 mL of pentobarbitone solution, 60 mg/mL, as required).
# (§4) The animals were transferred to a Flexivent System (SCIREQ, Montreal, Canada) in order to measure airway resistance. The animals were ventilated (quasi-sinusoidal ventilation pattern) at 60 breaths/min at a tidal volume of 5 mL/kg. A positive end expiratory pressure of 2-3 cmH2O was applied. Respiratory resistance was measured using the Flexivent “snapshot” facility (1 second duration, 1 Hz frequency). Once stable baseline resistance value had been obtained the animals were given histamine or methacholine in ascending doses (0.5, 1, 2, 3 and 5 μg/kg, i.v.) at approximately 4-minute intervals via the jugular catheter. After each administration of bronchoconstrictor the peak resistance value was recorded. Guinea pigs were euthanized with approximately 1.0 mL pentobarbitone sodium (Euthatal) intravenously after the completion of the lung function measurements. Percentage bronchoprotection produced by a compound was calculated at each dose of brochoconstrictor as follows:
# (§5) Where % change Rveh is the mean of the maximum percentage change in airway resistance in the vehicle treated group. The results reported were measured after 5 μg/kg histamine or methacholine and were expressed as percentage bronchoprotection (mean ±s.e.mean).
# [3] = system: methacholine-induced bronchoconstriction; assay: Lung function in anaesthetized guinea-pigs, methacholine challenge; assay type: in vivo, Dunkin-Hartley guinea pig; conditions: for inhibition of methacholine-induced bronchoconstriction: methacholine 5 μg/kg i.v.; for increase in resistance: methacholine 5 μg/kg, vehicle 1898±211%
# Method: as §1, §2, §3, §4, §5
# [4] = system: guinea pig trachea; assay: Bronchodilator onset in guinea pig isolated tracheal ring contracted with methacholine
# Method: Evaluation of Bronchodilator Activity in the Guinea Pig Isolated Tracheal Ring Preparation
# Guinea pigs (300-500 g) were killed by cervical dislocation and the trachea was isolated. The trachea was cut into segments 2-3 cartilage rings in width and suspended in 10 ml organ baths in modified Krebs' solution (mM; NaCl, 90; NaHCO3, 45; KCl, 5; MgSO4.7H2O, 0.5; Na2HPO4.2H2O, 1; CaCl2, 2.25; glucose, 10; pH 7.4) gassed with 5% CO2, 95% […] at 37° C.). The tracheal rings were attached to an isometric force transducer for the measurement of isometric tension. The tissues were washed and a force of 1 g was applied to each tissue. The rings were contracted with methacholine (1 μM). Once the contraction had reached a plateau, vehicle (0.01% DMSO in distilled H2O), compound A (3 nM), roflumilast (1 μM) or a combination of compound A (3 nM) and roflumilast (1 μM) was added and the tissue left until the response had reached a plateau. Data were collected using the Chart 4 software (ADInstruments, Charlgrove, UK). The time to 90% of the maximum effect of the bronchodilator (onset time) was measured and expressed in min (mean ±s.e.mean).
# [5] = compound A 1 μg/kg intratracheal 2 h before
# [6] = compound A 1 μg/kg intratracheal
# [7] = compound A 27 μg/kg intratracheal 2 h before
# [8] = compound A 27 μg/kg intratracheal
# T1 sequence (P14416 1-414 isoform P14416-2): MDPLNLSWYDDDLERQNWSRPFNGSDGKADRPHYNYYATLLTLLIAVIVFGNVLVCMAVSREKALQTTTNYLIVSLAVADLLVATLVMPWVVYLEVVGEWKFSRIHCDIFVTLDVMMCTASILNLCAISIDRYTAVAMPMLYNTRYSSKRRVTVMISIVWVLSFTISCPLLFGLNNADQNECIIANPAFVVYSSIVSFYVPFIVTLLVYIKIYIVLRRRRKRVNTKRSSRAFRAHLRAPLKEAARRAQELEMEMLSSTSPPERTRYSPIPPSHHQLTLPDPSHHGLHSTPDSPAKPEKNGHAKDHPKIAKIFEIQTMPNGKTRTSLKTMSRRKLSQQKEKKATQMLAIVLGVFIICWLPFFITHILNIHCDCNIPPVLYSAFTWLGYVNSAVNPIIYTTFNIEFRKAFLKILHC
structure (smiles),measurement,setting,value
"CCN(CC)CCN(CCNCCc1ccc(O)c2[nH]c(=O)sc12)C(=O)CCOCCc1cccc2ccccc12 [Compound A, N-[2-(Diethylamino)ethyl]-N-(2-{[2-(4-hydroxy-2-oxo-2,3-dihydro-1,3-benzothiazol-7-yl)ethyl]amino}ethyl)-3-[2-(1-naphthyl)ethoxy]propanamide dihydrobromide]",IC50,[1],794 nM
same,inhibition of histamine-induced bronchoconstriction,[2]; [5],49%
same,increase in bronchoconstriction,[2]; [6],544±60%
same,inhibition of histamine-induced bronchoconstriction,[2]; [7],87%
same,increase in bronchoconstriction,[2]; [8],140±36%
same,inhibition of methacholine-induced bronchoconstriction,[3]; [5],15%
same,increase in resistance,[3]; [6],1619±235%
same,inhibition of methacholine-induced bronchoconstriction,[3]; [7],82%
same,increase in resistance,[3]; [8],347±71%
same,onset time (time to 90% of the maximum effect),[4]; Compound A 3 nM in the presence of roflumilast 1 μM,5.7 ± 1.0 min
same,onset time (time to 90% of the maximum effect),"[4]; compound A 3 nM alone, methacholine 1 μM contraction, mean ±s.e.mean",16 ± 3.0 min
